From patent publication US11129801B2 (SigmaThera SAS, priority 2016, dated 2021) come the findings set out here.

In the assay the test system is Aβ25-35 mouse model of Alzheimer's disease. Kind of assay: Step-through passive avoidance test, Aβ25-35 mouse model. The format is in vivo. On the procedure: The compound efficacy was evaluated 7 days after the peptide administration on the attenuation of the Aβ25-35-induced learning deficits (spatial working memory using the spontaneous alternation in the Y-maze test, and contextual long-term memory using the passive avoidance test).
The mice were tested 7 days post injection or at the indicated time points.
In Experiment 2, twelve mice per experimental group were administered Sc.Aβ or Aβ25-35-amyloid peptide on day 0 by i.c.v. injection. […] Animals were tested at day 7 and later.
Each of these doses was, by itself, unable to produce any protective effect. The synergy/additivity/antagonism was evaluated by calculating the combination index. […] Animals were then tested at day 7 and later.
For each of Experiments 1-4, on day 7, all animals were tested for the spontaneous alternation performance in the Y-maze test, an index of spatial working memory. On day 8 and 9, the contextual long-term memory of the animals was assessed using the step-through type passive avoidance procedure. On day 9, immediately after the retention session, animals were sacrificed by decapitation and the hippocampus and cortex dissected out. Lipid peroxidation was analyzed in the hippocampus, whereas neuroinflammation, apoptosis, amyloid burden and hyperphosphorylation of tau protein were analyzed in cortex.
The homogeneous oligomeric preparation of Aβ25-35 peptide was performed according to the AMYLGEN's own procedure. Each mouse was anesthetized with isoflurane 2.5% and injected i.c.v. with Aβ25-35 peptide (9 nmol/mouse) or Sc.Aβ peptide (9 nmol/mouse), in a final volume of 3 μl/mouse, according to the previously described method (Maurice T, et al. (1996). Brain Res. 706(2): 181-193, Maurice T, et al. (1998) Neuroscience 83(2): 413-428, Meunier J, et al. (2006) British J. Pharmacol. 149(8): 998-1012, Villard V, et al. (2009) Neuropsychopharmacology 34(6): 1552-1566, Villard V, et al. (2011) J. Pharmacol. Sci. 115(3): 279-292).
Animals: Male Swiss mice, 6 weeks old and weighing 30-35 g, from JANVIER (Saint Berthevin, France), were kept for housing and experiments took place within the animal facility building of the University of Montpellier 2 (CECEMA, Office of Veterinary Services agreement #B-34-172-23). Animals were housed in groups with access to food and water ad libitum, except during behavioral experiments. They were kept in a temperature and humidity controlled animal facility on a 12 h/12 h light/dark cycle (lights off at 07:00 pm). […]
Passive avoidance test: The passive avoidance task was used to evaluate learning and memory in mice treated with igmesine. […] The step-through latency, that is, the latency spent to enter the dark compartment, and the number of vocalizations was recorded. […]

The mark [1] stands for this setting: Experiment 1, pre-treatment, 0.1, 0.3, 1 mg/kg i.p.
[2] abbreviates: Experiment 2, post-treatment day 1 to day 6.

As to `CCC(C/C=C/c1ccccc1)(c1ccccc1)N(C)CC1CC1` (single isomer, unassigned; (+)) [igmesine, (+)-(E)-N-(cyclopropylmethyl)-N-methyl-3,6-diphenylhex-5-en-3-amine], the “prevention of passive avoidance deficits, escape latency” value is on record as “at the highest dose” under setting [1] and “significant prevention at the highest dose tested” under setting [2]. Further, the “prevention of passive avoidance deficits, step-through latency” value is listed as “significant prevention at the two highest dose tested” under setting [1] and “significant prevention at the highest dose tested” under setting [2].
